Test results from US11066363B2, “Substituted 6,11-dihydro-5H-benzo[B]carbazoles as inhibitors of ALK and SRPK” (Dana-Farber Cancer Institute, Inc., priority 2015, dated 2021).
Each block holds one compound with its values, some of them ahead of it.

What was measured:
[1] = tested on: EML4-ALK^G1202R transformed Ba/F3 cells; test: Ba/F3 single point inhibition assay (MTS); type: cell-based; conditions: single dose 1 μM, 72 hours
[2] = molecular target: SRPK2 (Homo sapiens (Human), UniProt P78362); test: SRPK2 inhibitory activity; type: biochemical
[3] = tested on: EML4-ALK wt transformed Ba/F3 cells; test: Ba/F3 single point inhibition assay (MTS); type: cell-based; conditions: single dose 1 μM, 72 hours
[4] = molecular target: SRPK1 (Homo sapiens (Human), UniProt Q96SB4); test: SRPK1 inhibitory activity; type: biochemical
[5] = molecular target: EML4-ALK G1202R transformed Ba/F3 cells (Homo sapiens, UniProt Q9UM73, G1202R, cells depend on it); test: Ba/F3 dose escalation MTS viability assay; type: cell-based; conditions: 72 hours
[6] = molecular target: EML4-ALK G1269A transformed Ba/F3 cells (Homo sapiens, UniProt Q9UM73, G1269A, cells depend on it); test: Ba/F3 dose escalation MTS viability assay; type: cell-based; conditions: 72 hours
[7] = molecular target: EML4-ALK L1152R transformed Ba/F3 cells (Homo sapiens, UniProt Q9UM73, L1152R, cells depend on it); test: Ba/F3 dose escalation MTS viability assay; type: cell-based; conditions: 72 hours
[8] = molecular target: EML4-ALK C1156Y transformed Ba/F3 cells (Homo sapiens, UniProt Q9UM73, C1156Y, cells depend on it); test: Ba/F3 dose escalation MTS viability assay; type: cell-based; conditions: 72 hours
[9] = molecular target: EML4-ALK L1196M transformed Ba/F3 cells (Homo sapiens, UniProt Q9UM73, L1196M, cells depend on it); test: Ba/F3 dose escalation MTS viability assay; conditions: read-out: IC50 L1196M, 72 hours
[10] = molecular target: EML4-ALK S1206Y transformed Ba/F3 cells (Homo sapiens, UniProt Q9UM73, S1206Y, cells depend on it); test: Ba/F3 dose escalation MTS viability assay; type: cell-based; conditions: 72 hours
[11] = molecular target: EML4-ALK^WT transformed Ba/F3 cells (Homo sapiens, UniProt Q9UM73); test: Ba/F3 dose escalation MTS viability assay; conditions: read-out: IC50 wt, 72 hours

- IC50 [2]: 12.4 nM
- IC50 [4]: 3.01 nM
SMILES: CCc1cc2c(cc1-c1cnn(C)c1)C(C)(C)c1[nH]c3cc(C#N)ccc3c1C2=O [Compound 7, 9-ethyl-6,6-dimethyl-8-(1-methyl-1H-pyrazol-4-yl)-11-oxo-6,11-dihydro-5H-benzo[b]carbazole-3-carbonitrile]
- Percent viability of untreated control, G1202R [1]: 1%
- Percent viability of untreated control, wt [3]: 1%

SMILES: CCc1cc2c(cc1-c1cn[nH]c1)C(C)(C)c1[nH]c3cc(C#N)ccc3c1C2=O [Compound 8, 9-ethyl-6,6-dimethyl-11-oxo-8-(1H-pyrazol-4-yl)-6,11-dihydro-5H-benzo[b]carbazole-3-carbonitrile]
- Percent viability of untreated control, G1202R [1]: 1%
- Percent viability of untreated control, wt [3]: 0%

- IC50 [4]: 1.15 nM
SMILES: CCc1cc2c(cc1-c1cc[nH]n1)C(C)(C)c1[nH]c3cc(C#N)ccc3c1C2=O [Compound 9, 9-ethyl-6,6-dimethyl-11-oxo-8-(1H-pyrazol-3-yl)-6,11-dihydro-5H-benzo[b]carbazole-3-carbonitrile]
- Percent viability of untreated control, G1202R [1]: 1%
- Percent viability of untreated control, wt [3]: 1%

SMILES: CCc1cc2c(cc1-c1ccoc1)C(C)(C)c1[nH]c3cc(C#N)ccc3c1C2=O [Compound 11, 9-ethyl-8-(furan-3-yl)-6,6-dimethyl-11-oxo-6,11-dihydro-5H-benzo[b]carbazole-3-carbonitrile]
- Percent viability of untreated control, G1202R [1]: 8%
- Percent viability of untreated control, wt [3]: 6%

SMILES: CCc1cc2c(cc1-c1cccs1)C(C)(C)c1[nH]c3cc(C#N)ccc3c1C2=O [Compound 12, 9-ethyl-6,6-dimethyl-11-oxo-8-(thiophen-2-yl)-6,11-dihydro-5H-benzo[b]carbazole-3-carbonitrile]
- Percent viability of untreated control, G1202R [1]: 10%
- Percent viability of untreated control, wt [3]: 12%

- IC50 [4]: 2.61 nM
SMILES: CCc1cc2c(cc1-c1ccncc1)C(C)(C)c1[nH]c3cc(C#N)ccc3c1C2=O [Compound 14]
- Percent viability of untreated control, G1202R [1]: 5%
- Percent viability of untreated control, wt [3]: 2%

SMILES: CCc1cc2c(cc1-c1cccnc1)C(C)(C)c1[nH]c3cc(C#N)ccc3c1C2=O [Compound 15, 9-ethyl-6,6-dimethyl-11-oxo-8-(pyridin-3-yl)-6,11-dihydro-5H-benzo[b]carbazole-3-carbonitrile]
- Percent viability of untreated control, G1202R [1]: 3%
- Percent viability of untreated control, wt [3]: 1%

- IC50 [2]: 12.5 nM
- IC50 [4]: 2.53 nM
SMILES: CCc1cc2c(cc1-c1cncnc1)C(C)(C)c1[nH]c3cc(C#N)ccc3c1C2=O [Compound 16, 9-ethyl-6,6-dimethyl-11-oxo-8-(pyrimidin-5-yl)-6,11-dihydro-5H-benzo[b]carbazole-3-carbonitrile]
- Percent viability of untreated control, G1202R [1]: 4%
- Percent viability of untreated control, wt [3]: 3%

- IC50 [4]: > 1000 nM
SMILES: CCc1cc2c(cc1N1CCC(N(C)C)CC1)C(C)(C)c1[nH]c3cc(C#N)ccc3c1C2=O [Compound 17, 8-(4-(dimethylamino)piperidin-1-yl)-9-ethyl-6,6-dimethyl-11-oxo-6,11-dihydro-5H-benzo[b]carbazole-3-carbonitrile]
- IC50 [5]: 478 nM
- IC50 [6]: 3 nM
- IC50 [7]: 695 nM
- IC50 [8]: 2 nM
- Percent viability of untreated control, G1202R [1]: 9%
- IC50 [9]: 10 nM
- Percent viability of untreated control, wt [3]: 2%
- IC50 [10]: 2 nM
- IC50 [11]: 2 nM

SMILES: CCc1cc2c(cc1N1CCNCC1)C(C)(C)c1[nH]c3cc(C#N)ccc3c1C2=O [Compound 18, 9-ethyl-6,6-dimethyl-11-oxo-8-(piperazin-1-yl)-6,11-dihydro-5H-benzo[b]carbazole-3-carbonitrile]
- Percent viability of untreated control, G1202R [1]: 7%
- Percent viability of untreated control, wt [3]: 1%

- IC50 [2]: 8.57 nM
- IC50 [4]: 2.66 nM
SMILES: CCc1cc2c(cc1N1CCN(C)CC1)C(C)(C)c1[nH]c3cc(C#N)ccc3c1C2=O [Compound 19, 9-ethyl-6,6-dimethyl-8-(4-methylpiperazin-1-yl)-11-oxo-6,11-dihydro-5H-benzo[b]carbazole-3-carbonitrile]
- Percent viability of untreated control, G1202R [1]: 0.1%
- Percent viability of untreated control, wt [3]: 0.1%

SMILES: CCc1cc2c(cc1N1CCOCC1)C(C)(C)c1[nH]c3cc(C#N)ccc3c1C2=O [Compound 20, 9-ethyl-6,6-dimethyl-8-morpholino-11-oxo-6,11-dihydro-5H-benzo[b]carbazole-3-carbonitrile]
- Percent viability of untreated control, G1202R [1]: 4%
- Percent viability of untreated control, wt [3]: 2%

SMILES: CCc1cc2c(cc1C#N)C(C)(C)c1[nH]c3cc(C#N)ccc3c1C2=O [Compound 21, 9-ethyl-6,6-dimethyl-11-oxo-6,11-dihydro-5H-benzo[b]carbazole-3,8-dicarbonitrile]
- Percent viability of untreated control, G1202R [1]: 28%
- Percent viability of untreated control, wt [3]: 19%

SMILES: CCc1cc2c(cc1[C@@H](O)CO)C(C)(C)c1[nH]c3cc(C#N)ccc3c1C2=O [Compound 22, (R)-8-(1,2-dihydroxyethyl)-9-ethyl-6,6-dimethyl-11-oxo-6,11-dihydro-5H-benzo[b]carbazole-3-carbonitrile]
- Percent viability of untreated control, G1202R [1]: 39%
- Percent viability of untreated control, wt [3]: 4%

SMILES: CCc1cc2c(cc1[C@H](O)CO)C(C)(C)c1[nH]c3cc(C#N)ccc3c1C2=O [Compound 23, (S)-8-(1,2-dihydroxyethyl)-9-ethyl-6,6-dimethyl-11-oxo-6,11-dihydro-5H-benzo[b]carbazole-3-carbonitrile]
- Percent viability of untreated control, wt [3]: 4%

SMILES: CCc1cc2c(cc1C(=O)O)C(C)(C)c1[nH]c3cc(C#N)ccc3c1C2=O [Compound 24, 3-cyano-9-ethyl-6,6-dimethyl-11-oxo-6,11-dihydro-5H-benzo[b]carbazole-8-carboxylic acid]
- Percent viability of untreated control, G1202R [1]: 39%
- Percent viability of untreated control, wt [3]: 57%

SMILES: CCc1cc2c(cc1/C=C/CN1CCOCC1)C(C)(C)c1[nH]c3cc(C#N)ccc3c1C2=O [Compound 25, (E)-9-ethyl-6,6-dimethyl-8-(3-morpholinoprop-1-en-1-yl)-11-oxo-6,11-dihydro-5H-benzo[b]carbazole-3-carbonitrile]
- Percent viability of untreated control, G1202R [1]: 103%
- Percent viability of untreated control, wt [3]: 93%

SMILES: CCc1cc2c(cc1-c1ccc(O)nc1)C(C)(C)c1[nH]c3cc(C#N)ccc3c1C2=O [Compound 26, 9-ethyl-8-(6-hydroxypyridin-3-yl)-6,6-dimethyl-11-oxo-6,11-dihydro-5H-benzo[b]carbazole-3-carbonitrile]
- Percent viability of untreated control, G1202R [1]: 12%
- Percent viability of untreated control, wt [3]: 4%

SMILES: CCc1cc2c(cc1-c1ccc(N)nc1)C(C)(C)c1[nH]c3cc(C#N)ccc3c1C2=O [Compound 27, 8-(6-aminopyridin-3-yl)-9-ethyl-6,6-dimethyl-11-oxo-6,11-dihydro-5H-benzo[b]carbazole-3-carbonitrile]
- Percent viability of untreated control, G1202R [1]: 42%
- Percent viability of untreated control, wt [3]: 12%

SMILES: CCc1cc2c(cc1N(C)CCN(C)C)C(C)(C)c1[nH]c3cc(C#N)ccc3c1C2=O [Compound 28, 8-((2 (dimethylamino)ethyl)(methyl)amino)-9-ethyl-6,6-dimethyl-11-oxo-6,11-dihydro-5H-benzo[b]carbazole-3-carbonitrile]
- Percent viability of untreated control, G1202R [1]: 7%
- Percent viability of untreated control, wt [3]: 2%

SMILES: CCc1cc2c(cc1-c1cnn(CC(=O)NC)c1)C(C)(C)c1[nH]c3cc(C#N)ccc3c1C2=O [Compound 33, 2-(4-(3-cyano-9-ethyl-6,6-dimethyl-11-oxo-6,11-dihydro-5H-benzo[b]carbazol-8-yl)-1H-pyrazol-1-yl)-N-methylacetamide]
- Percent viability of untreated control, G1202R [1]: 0%
- Percent viability of untreated control, wt [3]: 0%

SMILES: CCc1cc2c(cc1-c1cnn(C(C)(C)C(=O)N(C)C)c1)C(C)(C)c1[nH]c3cc(C#N)ccc3c1C2=O [Compound 35, 2-(4-(3-cyano-9-ethyl-6,6-dimethyl-11-oxo-6,11-dihydro-5H-benzo[b]carbazol-8-yl)-1H-pyrazol-1-yl)-N,N,2-trimethylpropanamide]
- Percent viability of untreated control, G1202R [1]: 0%
- Percent viability of untreated control, wt [3]: 0%

- IC50 [2]: 23.6 nM
- IC50 [4]: 4.75 nM
SMILES: CCc1cc2c(cc1-c1cnn(C(=O)N(C)C)c1)C(C)(C)c1[nH]c3cc(C#N)ccc3c1C2=O [Compound 36, 4-(3-cyano-9-ethyl-6,6-dimethyl-11-oxo-6,11-dihydro-5H-benzo[b]carbazol-8-yl)-N,N-dimethyl-1H-pyrazole-1-carboxamide]
- Percent viability of untreated control, G1202R [1]: 0%
- Percent viability of untreated control, wt [3]: 0%

SMILES: CCc1cc2c(cc1-c1ccc(S(=O)(=O)F)cc1)C(C)(C)c1[nH]c3cc(C#N)ccc3c1C2=O [Compound 38, 4-(3-cyano-9-ethyl-6,6-dimethyl-11-oxo-6,11-dihydro-5H-benzo[b]carbazol-8-yl)benzenesulfonyl fluoride]
- IC50 [4]: 41 nM
